Test results taken from ChEMBL document CHEMBL1148964, “New furofuran and butyrolactone lignans with antioxidant activity from the stem bark of Styrax japonica” (J Nat Prod, 2004).

Tested on: Radical scavenging activity
Assay: Antioxidant activity assessed as DPPH radical scavenging activity after 30 mins
Assay type: functional

**Q.** With `Cc1c(C)c2c(c(C)c1O)CC[C@@](C)(CCC[C@H](C)CCC[C@H](C)CCCC(C)C)O2` [ALPHA-TOCOPHEROL] as the molecule, how does the IC50 read?
**A.** 20.1 µM

**Q.** With `COc1cc([C@@H]2OC[C@@H]3[C@H]2C(=O)O[C@H]3c2ccc3c(c2)OCO3)ccc1O[C@@H]1O[C@H](CO)[C@@H](O)[C@H](O)[C@H]1O` [STYRAXLIGNOLIDE B] as the molecule, how does the IC50 read?
**A.** > 500 µM

**Q.** `COc1ccc(C[C@@H]2C(=O)OC[C@H]2Cc2ccc(O[C@@H]3O[C@H](CO)[C@@H](O)[C@H](O)[C@H]3O)c(OC)c2)cc1O` [STYRAXLIGNOLIDE C] was tested. Which IC50 did it give?
**A.** 380 µM

**Q.** Which IC50 does the source give for `COc1cc(C[C@@H]2C(=O)OC[C@H]2Cc2ccc(O[C@@H]3O[C@H](CO)[C@@H](O)[C@H](O)[C@H]3O)c(OC)c2)ccc1O` [STYRAXLIGNOLIDE D] here?
**A.** 278 µM

**Q.** `COc1cc(C[C@@H]2COC(=O)[C@H]2Cc2ccc(O[C@@H]3O[C@H](CO)[C@@H](O)[C@H](O)[C@H]3O)c(OC)c2)ccc1O` [STYRAXLIGNOLIDE E] was tested. Which IC50 did it give?
**A.** 194 µM

**Q.** With `COc1ccc(C[C@@H]2C(=O)OC[C@H]2Cc2ccc(O[C@@H]3O[C@H](CO)[C@@H](O)[C@H](O)[C@H]3O)c(OC)c2)cc1OC` [STYRAXLIGNOLIDE F] as the molecule, how does the IC50 read?
**A.** > 500 µM

**Q.** Which IC50 does the source give for `COc1cc(/C=C/CO)cc(OC)c1O[C@@H]1O[C@H](CO)[C@@H](O)[C@H](O)[C@H]1O` [SYRINGIN] here?
**A.** > 500 µM

**Q.** How did the IC50 turn out when `CC1(C)CC[C@]2(C)CC=C3[C@]4(C)CC[C@H]5C(C)(C)[C@@H](O)CC[C@]5(C)[C@H]4CC[C@@]3(C)[C@@H]2C1` [TARAXEROL] was run?
**A.** > 500 µM
